Laboratory results taken from the kinase profiling compilation of Christmann-Franck et al. (2016).

Tests used:
Assay in all cases: Caliper, Mobility shift assay off-chip
[1] = test system: FLT3 (human), P36888 [D835Y]
STK3 (human) = STK3 (human) (UniProt Q13188)
MAPK11 (human) = MAPK11 (human) (UniProt Q15759)
MAPK3 (human) = MAPK3 (human) (UniProt P27361)
MAPKAPK2 (human) = MAPKAPK2 (human) (UniProt P49137)
PRKCH (human) = PRKCH (human) (UniProt P24723)
LYN (human) = LYN (human) (UniProt P07948)
CSNK1A1 (human) = CSNK1A1 (human) (UniProt P48729)
KDR (human) = KDR (human) (UniProt P35968)
AURKA (human) = AURKA (human) (UniProt O14965)
HCK (human) = HCK (human) (UniProt P08631)
IRAK4 (human) = IRAK4 (human) (UniProt Q9NWZ3)
BMX (human) = BMX (human) (UniProt P51813)
MAPK13 (human) = MAPK13 (human) (UniProt O15264)
RPS6KA4 KD1 KD2 (human) = RPS6KA4 KD1 KD2 (human) (UniProt O75676)
LCK (human) = LCK (human) (UniProt P06239)
PRKCQ (human) = PRKCQ (human) (UniProt Q04759)
MARK3 (human) = MARK3 (human) (UniProt P27448)
DYRK1A (human) = DYRK1A (human) (UniProt Q13627)
SYK (human) = SYK (human) (UniProt P43405)
[2] = test system: ABL1 (human), P00519 [H396P]
RPS6KA1 KD1 KD2 (human) = RPS6KA1 KD1 KD2 (human) (UniProt Q15418)
GSK3B (human) = GSK3B (human) (UniProt P49841)
MAPKAPK5 (human) = MAPKAPK5 (human) (UniProt Q8IW41)
PIM2 (human) = PIM2 (human) (UniProt Q9P1W9)
AKT3 (human) = AKT3 (human) (UniProt Q9Y243)
EGFR (human) = EGFR (human) (UniProt P00533)
SGK1 (human) = SGK1 (human) (UniProt O00141)
PRKACA (human) = PRKACA (human) (UniProt P17612)
CAMK2D (human) = CAMK2D (human) (UniProt Q13557)
RAF1 (human) = RAF1 (human) (UniProt P04049)
PRKCB2 (human) = PRKCB2 (human) (UniProt P05771)
MARK2 (human) = MARK2 (human) (UniProt Q7KZI7)
CHEK1 (human) = CHEK1 (human) (UniProt O14757)
Chain of CHEK1 (human) (O14757 whole entry, looked up): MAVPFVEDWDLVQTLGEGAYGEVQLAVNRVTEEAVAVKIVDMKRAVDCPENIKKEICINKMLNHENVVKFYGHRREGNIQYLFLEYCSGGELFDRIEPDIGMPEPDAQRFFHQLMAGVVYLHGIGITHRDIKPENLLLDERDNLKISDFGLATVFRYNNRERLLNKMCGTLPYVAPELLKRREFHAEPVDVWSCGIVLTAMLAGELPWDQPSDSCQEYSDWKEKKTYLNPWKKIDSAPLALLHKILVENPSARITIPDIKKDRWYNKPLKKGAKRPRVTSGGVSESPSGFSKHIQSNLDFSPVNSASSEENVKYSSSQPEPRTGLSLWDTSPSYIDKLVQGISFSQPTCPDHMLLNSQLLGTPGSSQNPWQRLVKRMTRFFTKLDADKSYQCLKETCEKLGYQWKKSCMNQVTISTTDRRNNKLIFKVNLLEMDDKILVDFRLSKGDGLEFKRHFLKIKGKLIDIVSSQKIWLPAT

Chain of MAPKAPK5 (human) (Q8IW41 whole entry, looked up): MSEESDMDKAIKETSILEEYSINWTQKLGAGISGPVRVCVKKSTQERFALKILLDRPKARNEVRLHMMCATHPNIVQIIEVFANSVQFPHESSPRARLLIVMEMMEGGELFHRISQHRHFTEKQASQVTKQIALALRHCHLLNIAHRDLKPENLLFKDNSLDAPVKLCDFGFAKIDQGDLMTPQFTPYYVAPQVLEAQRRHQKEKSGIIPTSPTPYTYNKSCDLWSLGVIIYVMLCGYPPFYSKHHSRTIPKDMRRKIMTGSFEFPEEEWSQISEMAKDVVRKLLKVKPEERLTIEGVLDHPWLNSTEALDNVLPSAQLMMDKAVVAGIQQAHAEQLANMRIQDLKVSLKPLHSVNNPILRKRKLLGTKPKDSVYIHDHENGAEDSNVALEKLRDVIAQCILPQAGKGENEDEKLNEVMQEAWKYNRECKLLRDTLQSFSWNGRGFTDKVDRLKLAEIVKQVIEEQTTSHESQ
Chain of EGFR (human) (P00533 whole entry, looked up): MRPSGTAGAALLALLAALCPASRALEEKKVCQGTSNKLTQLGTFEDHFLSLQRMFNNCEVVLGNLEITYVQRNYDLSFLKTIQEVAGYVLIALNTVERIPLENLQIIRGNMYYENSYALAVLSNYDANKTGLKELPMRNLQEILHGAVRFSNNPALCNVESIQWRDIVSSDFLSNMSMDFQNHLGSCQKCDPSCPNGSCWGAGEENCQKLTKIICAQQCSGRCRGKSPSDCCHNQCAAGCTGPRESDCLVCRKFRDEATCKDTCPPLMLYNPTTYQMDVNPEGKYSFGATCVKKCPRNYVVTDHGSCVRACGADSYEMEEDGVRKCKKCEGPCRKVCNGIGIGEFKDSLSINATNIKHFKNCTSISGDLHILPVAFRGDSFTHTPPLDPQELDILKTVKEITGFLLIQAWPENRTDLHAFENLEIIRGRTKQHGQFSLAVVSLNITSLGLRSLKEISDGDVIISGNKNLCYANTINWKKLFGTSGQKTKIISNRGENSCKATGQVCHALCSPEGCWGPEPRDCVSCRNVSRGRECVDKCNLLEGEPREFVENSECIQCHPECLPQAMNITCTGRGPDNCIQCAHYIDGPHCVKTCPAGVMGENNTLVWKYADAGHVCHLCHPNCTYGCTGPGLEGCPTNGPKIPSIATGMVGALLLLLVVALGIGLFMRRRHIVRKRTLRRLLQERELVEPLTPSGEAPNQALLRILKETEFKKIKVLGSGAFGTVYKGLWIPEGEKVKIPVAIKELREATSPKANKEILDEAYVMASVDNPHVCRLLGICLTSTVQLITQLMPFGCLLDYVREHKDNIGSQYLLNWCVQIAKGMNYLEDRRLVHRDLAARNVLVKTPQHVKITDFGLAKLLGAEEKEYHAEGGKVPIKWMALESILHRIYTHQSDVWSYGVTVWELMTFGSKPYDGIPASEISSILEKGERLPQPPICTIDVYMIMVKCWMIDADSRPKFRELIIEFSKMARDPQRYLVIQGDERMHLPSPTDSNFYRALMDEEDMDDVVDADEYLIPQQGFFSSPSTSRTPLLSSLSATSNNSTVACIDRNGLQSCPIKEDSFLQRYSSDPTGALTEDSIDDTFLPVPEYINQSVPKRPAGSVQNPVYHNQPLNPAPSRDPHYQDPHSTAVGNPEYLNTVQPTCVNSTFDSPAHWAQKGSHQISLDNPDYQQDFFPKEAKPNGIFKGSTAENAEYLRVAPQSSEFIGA
Chain of AKT3 (human) (Q9Y243 whole entry, looked up): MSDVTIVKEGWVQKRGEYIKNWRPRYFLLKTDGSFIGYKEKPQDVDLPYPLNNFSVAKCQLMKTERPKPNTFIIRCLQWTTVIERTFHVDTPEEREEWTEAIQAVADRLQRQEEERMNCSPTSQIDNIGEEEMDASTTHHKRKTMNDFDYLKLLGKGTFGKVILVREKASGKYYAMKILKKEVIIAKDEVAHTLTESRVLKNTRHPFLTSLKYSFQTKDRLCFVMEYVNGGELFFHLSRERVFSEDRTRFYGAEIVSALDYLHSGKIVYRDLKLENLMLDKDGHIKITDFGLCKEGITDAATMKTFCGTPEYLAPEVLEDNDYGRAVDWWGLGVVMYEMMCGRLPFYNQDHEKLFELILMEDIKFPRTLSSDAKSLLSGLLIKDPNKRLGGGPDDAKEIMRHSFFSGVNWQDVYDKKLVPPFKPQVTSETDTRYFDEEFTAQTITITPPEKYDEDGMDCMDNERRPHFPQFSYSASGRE
Chain of MAPKAPK2 (human) (P49137 whole entry, looked up): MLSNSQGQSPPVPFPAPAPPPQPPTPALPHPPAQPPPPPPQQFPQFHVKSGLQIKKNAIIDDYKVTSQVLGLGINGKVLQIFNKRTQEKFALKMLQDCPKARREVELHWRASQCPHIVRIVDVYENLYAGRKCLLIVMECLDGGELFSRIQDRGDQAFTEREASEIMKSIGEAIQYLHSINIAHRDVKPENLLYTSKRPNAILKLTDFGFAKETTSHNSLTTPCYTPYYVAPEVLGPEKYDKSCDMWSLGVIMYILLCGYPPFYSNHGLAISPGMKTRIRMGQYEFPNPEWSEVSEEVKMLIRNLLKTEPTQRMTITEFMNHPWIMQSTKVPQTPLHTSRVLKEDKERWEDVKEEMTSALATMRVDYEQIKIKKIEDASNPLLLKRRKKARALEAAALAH
Chain of PRKCQ (human) (Q04759 whole entry, looked up): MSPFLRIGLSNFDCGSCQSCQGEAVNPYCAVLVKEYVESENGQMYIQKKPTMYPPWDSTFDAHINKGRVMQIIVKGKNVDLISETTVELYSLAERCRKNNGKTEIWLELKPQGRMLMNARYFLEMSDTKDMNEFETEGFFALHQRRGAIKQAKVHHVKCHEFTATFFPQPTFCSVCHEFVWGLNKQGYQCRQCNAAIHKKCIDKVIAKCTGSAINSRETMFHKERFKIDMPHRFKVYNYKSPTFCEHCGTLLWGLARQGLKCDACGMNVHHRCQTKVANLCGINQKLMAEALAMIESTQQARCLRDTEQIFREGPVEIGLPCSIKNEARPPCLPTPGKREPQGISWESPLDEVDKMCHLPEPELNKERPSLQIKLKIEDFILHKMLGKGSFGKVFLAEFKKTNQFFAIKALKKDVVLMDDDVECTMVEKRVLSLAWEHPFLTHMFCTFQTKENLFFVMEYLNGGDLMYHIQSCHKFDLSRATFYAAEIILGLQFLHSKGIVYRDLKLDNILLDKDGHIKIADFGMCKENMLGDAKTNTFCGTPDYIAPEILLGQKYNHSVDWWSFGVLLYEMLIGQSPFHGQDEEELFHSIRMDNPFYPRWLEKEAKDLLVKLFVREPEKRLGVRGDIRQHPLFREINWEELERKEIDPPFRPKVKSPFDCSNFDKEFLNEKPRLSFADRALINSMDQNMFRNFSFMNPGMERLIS
Chain of STK3 (human) (Q13188 whole entry, looked up): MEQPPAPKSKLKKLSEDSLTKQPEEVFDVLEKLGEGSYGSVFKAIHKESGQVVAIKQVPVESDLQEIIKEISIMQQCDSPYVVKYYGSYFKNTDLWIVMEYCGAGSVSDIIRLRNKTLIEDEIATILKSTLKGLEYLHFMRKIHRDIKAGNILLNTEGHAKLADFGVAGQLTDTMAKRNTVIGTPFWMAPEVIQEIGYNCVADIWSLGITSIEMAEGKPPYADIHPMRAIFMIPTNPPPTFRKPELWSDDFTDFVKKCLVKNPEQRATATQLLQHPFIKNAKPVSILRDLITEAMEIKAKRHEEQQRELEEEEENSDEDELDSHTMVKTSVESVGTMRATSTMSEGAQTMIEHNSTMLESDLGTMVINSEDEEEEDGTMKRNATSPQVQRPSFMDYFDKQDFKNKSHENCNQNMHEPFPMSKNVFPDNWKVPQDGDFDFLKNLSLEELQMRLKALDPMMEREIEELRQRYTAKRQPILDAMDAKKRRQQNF
Chain of AURKA (human) (O14965 whole entry, looked up): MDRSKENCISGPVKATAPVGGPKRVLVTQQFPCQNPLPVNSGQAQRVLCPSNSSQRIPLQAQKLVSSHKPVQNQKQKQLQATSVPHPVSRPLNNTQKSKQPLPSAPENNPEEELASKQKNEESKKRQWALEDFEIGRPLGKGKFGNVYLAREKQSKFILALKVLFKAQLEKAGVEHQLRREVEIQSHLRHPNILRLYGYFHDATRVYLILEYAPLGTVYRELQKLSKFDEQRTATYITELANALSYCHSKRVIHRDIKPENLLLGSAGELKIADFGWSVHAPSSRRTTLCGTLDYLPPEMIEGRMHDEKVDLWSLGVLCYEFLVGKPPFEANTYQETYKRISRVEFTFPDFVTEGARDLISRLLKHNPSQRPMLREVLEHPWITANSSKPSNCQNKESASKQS
Chain of MAPK11 (human) (Q15759 whole entry, looked up): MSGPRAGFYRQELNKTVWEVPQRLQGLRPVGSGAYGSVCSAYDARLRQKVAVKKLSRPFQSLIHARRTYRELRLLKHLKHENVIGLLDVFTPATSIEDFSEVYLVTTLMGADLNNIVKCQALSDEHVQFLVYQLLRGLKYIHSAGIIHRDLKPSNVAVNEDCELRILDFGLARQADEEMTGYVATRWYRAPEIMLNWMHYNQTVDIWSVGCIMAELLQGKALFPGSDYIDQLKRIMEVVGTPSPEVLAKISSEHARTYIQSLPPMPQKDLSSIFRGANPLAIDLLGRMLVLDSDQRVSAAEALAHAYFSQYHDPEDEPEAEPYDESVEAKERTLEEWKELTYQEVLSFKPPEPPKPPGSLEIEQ

Cn1cc(-c2cnc3ccc4ccc(CS(=O)(=O)CCc5ccccn5)cc4c(=O)c3c2)cn1
inhibition ([1]; compound 0.1 µM): 2.5%
inhibition ([1]; compound 1.0 µM): 13.3%
inhibition (STK3 (human); compound 0.1 µM): 3.4%
inhibition (STK3 (human); compound 1.0 µM): 0.7%
inhibition (MAPK11 (human); compound 0.1 µM): -11%
inhibition (MAPK11 (human); compound 1.0 µM): -1.8%
inhibition (MAPK3 (human); compound 0.1 µM): -10.8%
inhibition (MAPK3 (human); compound 1.0 µM): -1.3%
inhibition (MAPKAPK2 (human); compound 0.1 µM): -14.7%
inhibition (MAPKAPK2 (human); compound 1.0 µM): -4.4%
inhibition (PRKCH (human); compound 0.1 µM): -8.3%
inhibition (PRKCH (human); compound 1.0 µM): -5.7%
inhibition (LYN (human); compound 0.1 µM): -7.4%
inhibition (LYN (human); compound 1.0 µM): 5.9%
inhibition (CSNK1A1 (human); compound 0.1 µM): -8.6%
inhibition (CSNK1A1 (human); compound 1.0 µM): -0.9%
inhibition (KDR (human); compound 0.1 µM): 7.9%
inhibition (KDR (human); compound 1.0 µM): 28.2%
inhibition (AURKA (human); compound 0.1 µM): 15.8%
inhibition (AURKA (human); compound 1.0 µM): 48%
inhibition (HCK (human); compound 0.1 µM): -5.1%
inhibition (HCK (human); compound 1.0 µM): 1.6%
inhibition (IRAK4 (human); compound 0.1 µM): -12%
inhibition (IRAK4 (human); compound 1.0 µM): 4.2%
inhibition (BMX (human); compound 0.1 µM): -7.2%
inhibition (BMX (human); compound 1.0 µM): 8.8%
inhibition (MAPK13 (human); compound 0.1 µM): -7.9%
inhibition (MAPK13 (human); compound 1.0 µM): -7.1%
inhibition (RPS6KA4 KD1 KD2 (human); compound 0.1 µM): -2.5%
inhibition (RPS6KA4 KD1 KD2 (human); compound 1.0 µM): -1.8%
inhibition (LCK (human); compound 0.1 µM): 9.2%
inhibition (LCK (human); compound 1.0 µM): 0.5%
inhibition (PRKCQ (human); compound 0.1 µM): -11.5%
inhibition (PRKCQ (human); compound 1.0 µM): -19.7%
inhibition (MARK3 (human); compound 0.1 µM): -7.9%
inhibition (MARK3 (human); compound 1.0 µM): -4.1%
inhibition (DYRK1A (human); compound 0.1 µM): -4.6%
inhibition (DYRK1A (human); compound 1.0 µM): -2.8%
inhibition (SYK (human); compound 0.1 µM): 1.2%
inhibition (SYK (human); compound 1.0 µM): -1.7%
inhibition ([2]; compound 0.1 µM): 10.6%
inhibition ([2]; compound 1.0 µM): 13.9%
inhibition (RPS6KA1 KD1 KD2 (human); compound 0.1 µM): -15.2%
inhibition (RPS6KA1 KD1 KD2 (human); compound 1.0 µM): -0.8%
inhibition (GSK3B (human); compound 0.1 µM): -3.5%
inhibition (GSK3B (human); compound 1.0 µM): 3%
inhibition (MAPKAPK5 (human); compound 0.1 µM): -20.9%
inhibition (MAPKAPK5 (human); compound 1.0 µM): 4.4%
inhibition (PIM2 (human); compound 0.1 µM): -2.1%
inhibition (PIM2 (human); compound 1.0 µM): 4.7%
inhibition (AKT3 (human); compound 0.1 µM): 6.4%
inhibition (AKT3 (human); compound 1.0 µM): -5.8%
inhibition (EGFR (human); compound 0.1 µM): -5.8%
inhibition (SGK1 (human); compound 0.1 µM): 1.7%
inhibition (SGK1 (human); compound 1.0 µM): -6.4%
inhibition (PRKACA (human); compound 0.1 µM): -13.6%
inhibition (PRKACA (human); compound 1.0 µM): 2.4%
inhibition (CAMK2D (human); compound 0.1 µM): -16.1%
inhibition (CAMK2D (human); compound 1.0 µM): -3.6%
inhibition (RAF1 (human); compound 0.1 µM): 5.1%
inhibition (RAF1 (human); compound 1.0 µM): 1.4%
inhibition (PRKCB2 (human); compound 0.1 µM): -4.2%
inhibition (PRKCB2 (human); compound 1.0 µM): -10.6%
inhibition (MARK2 (human); compound 0.1 µM): -1.3%
inhibition (MARK2 (human); compound 1.0 µM): 6.5%
inhibition (CHEK1 (human); compound 0.1 µM): 2%
inhibition (CHEK1 (human); compound 1.0 µM): 2.5%

O=c1c2cc(CS(=O)(=O)NCc3ccccn3)ccc2ccc2ncc(C3CCNCC3)cc12
inhibition ([1]; compound 0.01 µM): 2.3%
inhibition ([1]; compound 0.1 µM): 16.7%
inhibition (STK3 (human); compound 0.01 µM): 1.5%
inhibition (STK3 (human); compound 0.1 µM): 0.6%
inhibition (MAPK11 (human); compound 0.01 µM): -1.5%
inhibition (MAPK11 (human); compound 0.1 µM): 0.7%
inhibition (MAPK3 (human); compound 0.01 µM): -1%
inhibition (MAPK3 (human); compound 0.1 µM): 1.7%
inhibition (MAPKAPK2 (human); compound 0.01 µM): 0.4%
inhibition (MAPKAPK2 (human); compound 0.1 µM): -1.9%
inhibition (PRKCH (human); compound 0.01 µM): -4.3%
inhibition (PRKCH (human); compound 0.1 µM): -6.9%
inhibition (LYN (human); compound 0.01 µM): -6%
inhibition (LYN (human); compound 0.1 µM): -9.2%
inhibition (CSNK1A1 (human); compound 0.01 µM): 1.4%
inhibition (CSNK1A1 (human); compound 0.1 µM): -0.5%
inhibition (KDR (human); compound 0.01 µM): -4.1%
inhibition (KDR (human); compound 0.1 µM): 4.1%
inhibition (AURKA (human); compound 0.01 µM): -4.6%
inhibition (AURKA (human); compound 0.1 µM): 13.1%
inhibition (HCK (human); compound 0.01 µM): 2.6%
inhibition (HCK (human); compound 0.1 µM): -2%
inhibition (IRAK4 (human); compound 0.01 µM): 19.1%
inhibition (IRAK4 (human); compound 0.1 µM): -1.2%
inhibition (BMX (human); compound 0.01 µM): -12.1%
inhibition (BMX (human); compound 0.1 µM): -3.8%
inhibition (MAPK13 (human); compound 0.01 µM): 5.5%
inhibition (MAPK13 (human); compound 0.1 µM): -5.7%
inhibition (RPS6KA4 KD1 KD2 (human); compound 0.01 µM): 9.3%
inhibition (RPS6KA4 KD1 KD2 (human); compound 0.1 µM): -5.3%
inhibition (LCK (human); compound 0.01 µM): -2.9%
inhibition (LCK (human); compound 0.1 µM): 3.3%
inhibition (PRKCQ (human); compound 0.01 µM): 3.4%
inhibition (PRKCQ (human); compound 0.1 µM): -3.8%
inhibition (MARK3 (human); compound 0.01 µM): -1.6%
inhibition (MARK3 (human); compound 0.1 µM): -2.2%
inhibition (DYRK1A (human); compound 0.01 µM): 7.6%
inhibition (DYRK1A (human); compound 0.1 µM): -4.3%
inhibition (SYK (human); compound 0.01 µM): -4.6%
inhibition (SYK (human); compound 0.1 µM): 6.2%
inhibition ([2]; compound 0.01 µM): 4.8%
inhibition ([2]; compound 0.1 µM): -2.5%
inhibition (RPS6KA1 KD1 KD2 (human); compound 0.01 µM): -1.6%
inhibition (RPS6KA1 KD1 KD2 (human); compound 0.1 µM): 13.5%
inhibition (GSK3B (human); compound 0.01 µM): -1.8%
inhibition (GSK3B (human); compound 0.1 µM): -1%
inhibition (MAPKAPK5 (human); compound 0.01 µM): -4.7%
inhibition (MAPKAPK5 (human); compound 0.1 µM): 1.6%
inhibition (PIM2 (human); compound 0.01 µM): 4.3%
inhibition (PIM2 (human); compound 0.1 µM): 2.9%
inhibition (AKT3 (human); compound 0.01 µM): -6.5%
inhibition (AKT3 (human); compound 0.1 µM): 5.2%
inhibition (EGFR (human); compound 0.01 µM): -19.5%
inhibition (EGFR (human); compound 0.1 µM): -36.5%
inhibition (SGK1 (human); compound 0.01 µM): -3.6%
inhibition (SGK1 (human); compound 0.1 µM): -31.9%
inhibition (PRKACA (human); compound 0.01 µM): 3.2%
inhibition (PRKACA (human); compound 0.1 µM): 0.4%
inhibition (CAMK2D (human); compound 0.01 µM): 1.7%
inhibition (CAMK2D (human); compound 0.1 µM): 13.2%
inhibition (RAF1 (human); compound 0.01 µM): 1.4%
inhibition (RAF1 (human); compound 0.1 µM): 0.6%
inhibition (PRKCB2 (human); compound 0.01 µM): 14.8%
inhibition (PRKCB2 (human); compound 0.1 µM): 6%
inhibition (MARK2 (human); compound 0.01 µM): -7%
inhibition (MARK2 (human); compound 0.1 µM): -10%
inhibition (CHEK1 (human); compound 0.01 µM): -2.8%
inhibition (CHEK1 (human); compound 0.1 µM): -6%
